The results in this text go back to patent US20170158699A1, “ADDITION SALTS OF (S)-2-(1-(6-AMINO-5-CYANOPYRIMIDIN-4-YLAMINO)ETHYL)-4-OXO-3-PHENYL-3,4-DIHYDROPYRROLO[1,2-F][1,2,4]TRIAZINE-5-CARBONITRILE” (Almirall, S.A., priority 2014, published 2017).

≈ marks a conversion by molar mass, not a printed value. Read-outs that look alike come from different tables or passages of the source.

What all share (format): physicochemical
Data set [1] can be described thus: Gravimetric Vapour Sorption (GVS) isotherm, XRPD checked afterwards. As to conditions: for Hygroscopicity / water sorption behaviour (GVS): 0-90% RH; for Hygroscopicity / water sorption behaviour (GVS) / GVS mass change: 25° C.; for Change in form or crystallinity (XRPD) after GVS measurement: XRPD before and after GVS; for GVS mass change: from 0-90% RH. As for the experimental part: X-Ray Powder Diffraction (XRPD) patterns were collected on a Bruker D8 diffractometer using Cu Ka radiation (40 kV, 40 mA), θ-2θ goniometer, and divergence of V4 and receiving slits, a Ge monochromator and a Lynxeye detector. The instrument is performance checked using a certified Corundum standard (NIST 1976). The software used for data collection was Diffrac Plus XRD Commander v2.6.1 and the data were analysed and presented using Diffrac Plus EVA v13.0.0.2 or v15.0.0.0.
Samples were run under ambient conditions as flat plate specimens using powder as received. The sample was gently packed into a cavity cut into polished, zero-background (510) silicon wafer. The sample was rotated in its own plane during analysis. The details of the data collection were: • Angular range: 2 to 42° 2θ • Step size: 0.05° 2θ • Collection time: 0.5 s/step
Gravimetric Vapour Sorption (GVS; also known as Dynamic Vapour Sorption or DVS) isotherms were obtained using a SMS DVS Intrinsic moisture sorption analyser, controlled by DVS Intrinsic Control software v1.0.1.2. The sample temperature was maintained at 25° C. by the instrument controls. The humidity was controlled by mixing streams of dry and wet nitrogen, with a total flow rate of 200 mL/min The relative humidity was measured by a calibrated Rotronic probe (dynamic range of 1.0-100% RH), located near the sample. The weight change, (mass relaxation) of the sample as a function of % RH was constantly monitored by the microbalance (accuracy ±0.005 mg).
Typically 5-20 mg of sample were placed in a tared mesh stainless steel basket under ambient conditions. The sample was loaded and unloaded at 40% RH and 25° C. (typical room conditions). A moisture sorption isotherm was performed as outlined below (4 scans giving 2 complete cycles). The standard isotherm was performed at 25° C. at 10% RH intervals over a 0-90% RH range.

Data set [2] in a line: Differential scanning calorimetry (DSC) thermal stability. As for the experimental part: The differential scanning calorimetry (DSC) thermograms were obtained using a TA Instruments Q2000 equipped with a 50 position auto-sampler. The calibration for thermal capacity was carried out using sapphire and the calibration for energy and temperature was carried out using certified indium. […] (some runs up to 400° C.). A purge of dry nitrogen at 50 ml/min was maintained over the sample.
(In DSC, transitions show as peaks or steps in heat flow.)

Another data set is described as follows: Water-solubility test. The settings on record: room temperature (25° C.).

As for `C[C@H](Nc1ncnc(N)c1C#N)c1nn2ccc(C#N)c2c(=O)n1-c1ccccc1.O=S(=O)(O)c1ccc2ccccc2c1` [Example 2, (S)-2-(1-(6-amino-5-cyanopyrimidin-4-ylamino)ethyl)-4-oxo-3-phenyl-3,4-dihydropyrrolo[1,2-f][1,2,4]triazine-5-carbonitrile naphthalene-2-sulfonate], in data set [1], the “Hygroscopicity / water sorption behaviour (GVS)” value is “reversible and no hydrates were formed”; the “Change in form or crystallinity (XRPD) after GVS measurement” value (from here on “Change in form or crystallinity (XRPD)”) was “no change in form or crystallinity”; the GVS mass change entry is reported as “approx. 3.3%”. Further, the “Stability of the sample up to temperature (DSC)” value (shortened to “Stability of the sample up”) in data set [2] is “more than 250 °C”.
`C[C@H](Nc1ncnc(N)c1C#N)c1nn2ccc(C#N)c2c(=O)n1-c1ccccc1.Cc1ccc(S(=O)(=O)O)cc1` [Example 3, (S)-2-(1-(6-amino-5-cyanopyrimidin-4-ylamino)ethyl)-4-oxo-3-phenyl-3,4-dihydropyrrolo[1,2-f][1,2,4]triazine-5-carbonitrile para-toluenesulfonate]: in data set [1], the “Hygroscopicity / water sorption behaviour (GVS)” value is “not hygroscopic”, the “Change in form or crystallinity (XRPD)” value is recorded as “no change in form or crystallinity” and the GVS mass change entry is “approx. 0.3%”. Moreover, the “Stability of the sample up” value in data set [2] is “more than 250 °C”.
Turning to `C[C@H](Nc1ncnc(N)c1C#N)c1nn2ccc(C#N)c2c(=O)n1-c1ccccc1` [Example C1, (S)-2-(1-(6-amino-5-cyanopyrimidin-4-ylamino)ethyl)-4-oxo-3-phenyl-3,4-dihydropyrrolo[1,2-f][1,2,4]triazine-5-carbonitrile], in the data set “Water-solubility test”, the solubility (as a rule, the dissolved amount per volume that the medium holds) amounted to 1 µg/mL (≈ 2.52 µM).
For “(S)-2-(1-(6-amino-5-cyanopyrimidin-4-ylamino)ethyl)-4-oxo-3-phenyl-3,4-dihydropyrrolo[1,2-f][1,2,4]triazine-5-carbonitrile methanesulfonate [Example 1]”, in data set [1], the “Hygroscopicity / water sorption behaviour (GVS)” value is recorded as “not hygroscopic”, the “Change in form or crystallinity (XRPD)” value is recorded as “no change in form or crystallinity” and the GVS mass change entry is recorded as “approx. 1.2%”. Besides, the “Water Solubility @ 25° C.” value in “Water-solubility test” worked out at 60 µg/mL. Moreover, the “Stability of the sample up” value in data set [2] (heated at 10° C./min, dry nitrogen purge) is “more than 300 °C”.
